Results from article PMC12655637, “Design, Synthesis, and Mechanistic Study of Novel Ciprofloxacin/Thiazole Chalcone Hybrids as Potential Anticancer Agents” (Pharmaceuticals, 2025).
Several values for one entry are separate records, joined by “and”; a condition that tells them apart may be missing. Equal values may be shown once.

Assays:
[1] = In vitro cytotoxicity against normal cell line WI 38; assay type: cell-based; details: human, WI-38 normal cell line; for viability at 0.4 µM: WI38, 0.4uM; for viability at 1.6 µM: WI38, 1.6uM; for viability at 6.3 µM: WI38, 6.3uM; for viability at 25 µM: WI38, 25uM; for viability at 100 µM: WI38, 100uM; for IC50: ± SEM
From the text: Detailed results of cytotoxicity of compounds 4b and 4d against normal cell
Blank CC Sample No. 4b/WI38 sample no. 4d/WI38
conc. viability conc. viability

[2] = test system: Leukemia cancer cell lines; assay: NCI five-dose testing, subpanel (GI50 range, MID b, selectivity); details: for GI50: Homo sapiens; for SI: full-panel MG-MID / subpanel MG-MID, Leukemia; for MG-MID: mean activity across subpanel Leukemia
From the text: (§1) The log10 GI50, log10 TGI, and log10 LC50 values were subsequently calculated as the averages of the log10 values of the respective individual GI50, TGI, and LC50 measurements. Negative numbers signified the most sensitive cell lines.
(§2) One way to measure a compound’s selectivity is to divide its subpanel MID^b (in μM) by the MID^a (in μM), which is the average sensitivity of all cell lines to the test agent.
(§3) At the National Cancer Institute (NCI) in Bethesda, USA, researchers examined the anticancer potential of the target compounds under investigation using nine panels of sixty different cell lines obtained from nine different cancers that were housed in the NCI library. […] The anticancer screening was carried out at a single dose of 10^−5 M; the results obtained were expressed as growth inhibition (%).
(§4) The anti-cancer potential of the tested compounds was evaluated at the National cancer institute (NCI), Bethesda, USA, against 9 panels of 60 various cell lines derived from nine human tumours available usually at NCI library. […] The anticancer screening was carried out at single dose of 10^-5 M. The results obtained as growth inhibition (%).
(§5) Cell lines were grown in Roswell Park Memorial Institute medium (RPMI) with 5% fetal bovine serum and 2% μM L-glutamine. Cancer cells are inoculated into 96 well microtiter plates in 100 μL at plating densities ranging from 5000 to 40,000 cells/well depending on the doubling time of individual cell lines. Then microtiter plates are incubated at 37 °C, 5% CO2, 95% air and 100% relative humidity for 24 h prior to the addition of the tested compounds. After 24 h, two plates of each cell line are fixed in situ with trichloroacetic acid (TCA). The tested compounds were dissolved in dimethyl sulfoxide (DMSO) and stored in the freezer prior to use. An aliquot of frozen drug concentrate is diluted to the desired concentration with complete medium containing 50 μg/mL gentamicin.
(§6) compounds were added to the microtiter plates followed by incubation for further 48 h at 37 °C, 5% CO2, 95% air and 100% relative humidity. Fixation of cancer cell lines is carried out through gentle addition of 50 μL of cold 50 %w/v TCA (final concentration, 10% TCA) then incubated for 60 min. at 4 °C. The plates are washed five times with tap water after getting rid of the supernatant and allowed to dry in air. Sulforhodamine B (SRB) solution (100 μL) at 0.4% w/v in 1% acetic

[3] = test system: colon HCT116 cancer cell line; assay: Cell cycle analysis, propidium iodide flow cytometry; details: for Cell cycle arrest phase: HCT116; for DNA Content G2/M Phase / DNA Content S Phase / DNA Content G0-G1 Phase: HCT116 treated with IC50 concentration; for DNA Content G2/M Phase: DMSO 8.68%; for DNA Content S Phase: DMSO 27.03%; for DNA Content G0-G1 Phase: DMSO 64.29%
Description: The effect of compounds 4b and 4d on the cell cycle progression of the colon HCT-116 cell line was evaluated using a Propidium Iodide Flow Cytometry Kit to measure the DNA content, as per the reported protocols [39].
Cell cycle analysis and measurement of apoptotic potential
The effect of compound 4b and 4d on cell cycle progression of colon HCT-116 cell line was evaluated using Propidium Iodide Flow Cytometry Kit to measure the DNA content according to the reported protocols. The HCT116 cells used in this work were obtained from the American Type Culture Collection. Cells were cultured in DMEM (Invitrogen/Life Technologies) supplemented with 10% FBS (Hyclone), 10 µg/ml insulin (Sigma), and 1% penicillin-streptomycin. The remaining chemicals and reagents were all from Sigma or Invitrogen. Growth media was removed, cells washed with warm PBS and aspirated. Adhered cells were detached from media by addition of 5 ml 10% trypsin/EDTA and incubated 2 minutes in the incubator. The suspended cells harvested, aspirated to a falcon tube, centrifuged at 2000 rpm for 5 minutes. Cell count performed after suspending the cells into a fresh media and stained with trypan blue, counted and used for preparation of the appropriate number of cells.

Melanoma cell lines = assay: NCI five-dose testing, subpanel (MID b, selectivity); details: for SI: full-panel MG-MID / subpanel MG-MID, Melanoma; for MG-MID: mean activity across subpanel Melanoma
From the text: as §1, §2, §3, §4, §5, §6

colon HCT116 cells = assay: Annexin V-FITC/PI apoptosis and necrosis assay; assay type: cell-based, human; details: HCT116 treated with IC50 concentration; for Apoptosis Late: DMSO 0.15%; for Apoptosis Early: DMSO 0.39%; for Apoptosis Total: DMSO 0.54%; for Necrosis: DMSO 1.83%
Colon Cancer cell lines = assay: NCI five-dose testing, subpanel (GI50 range, MID b, selectivity); details: for GI50: Homo sapiens; for SI: full-panel MG-MID / subpanel MG-MID, Colon Cancer; for MG-MID: mean activity across subpanel Colon Cancer
From the text: as §1, §2, §3, §4, §5, §6

Topoisomerase I = target: T1, Topoisomerase I (Homo sapiens, UniProt P11387); assay: Topoisomerase I inhibition assay (ELISA kit of human DNA topoisomerase); details: for TOPO I fld (fold of control): HCT116, control = 1; for Topoisomerase I % Inhibition: in comparison to negative control
T1 sequence (P11387 1-765): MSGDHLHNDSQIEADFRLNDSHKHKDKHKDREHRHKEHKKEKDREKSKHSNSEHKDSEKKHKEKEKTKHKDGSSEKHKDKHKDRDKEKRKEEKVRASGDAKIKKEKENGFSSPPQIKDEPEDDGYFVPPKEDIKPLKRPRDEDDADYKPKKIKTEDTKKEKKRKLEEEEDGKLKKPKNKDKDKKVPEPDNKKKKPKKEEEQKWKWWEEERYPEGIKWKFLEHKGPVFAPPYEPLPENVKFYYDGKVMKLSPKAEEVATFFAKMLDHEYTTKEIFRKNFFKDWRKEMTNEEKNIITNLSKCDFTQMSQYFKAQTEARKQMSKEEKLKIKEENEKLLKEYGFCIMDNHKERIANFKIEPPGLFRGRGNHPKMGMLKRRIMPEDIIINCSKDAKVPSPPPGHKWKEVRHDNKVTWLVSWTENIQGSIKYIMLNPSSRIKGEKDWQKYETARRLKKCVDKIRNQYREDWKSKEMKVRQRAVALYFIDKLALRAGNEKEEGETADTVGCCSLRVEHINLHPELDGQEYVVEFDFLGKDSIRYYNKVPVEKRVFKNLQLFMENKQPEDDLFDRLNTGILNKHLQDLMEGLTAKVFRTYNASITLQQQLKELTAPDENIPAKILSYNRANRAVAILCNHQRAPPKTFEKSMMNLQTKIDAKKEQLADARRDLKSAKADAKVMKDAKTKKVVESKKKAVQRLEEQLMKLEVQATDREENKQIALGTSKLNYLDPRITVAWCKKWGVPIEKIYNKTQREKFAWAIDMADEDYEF
Description: The assay was performed using a commercially available Topoisomerase I Drug Screening Kit (TopoGen, Inc., Cat. # TG1015-1, Buena Vista, CO, USA) according to the manufacturer’s instructions, with minor modifications.
Evaluation of Topoisomerase I/II inhibition
Two folds of serial dilution was accomplished after standards and the tested compounds were dissolved in sample diluent.
Horseradish peroxidase (HRP-avidin) and biotin-conjugated antibody were diluted 10 times each.
Each well received 100 μL of each concentration of the standard or test chemicals, which were then added and incubated at 37 °C for 60 min. After each well's liquid had been carefully removed,
incubated for 1 h at 37 °C. The microtiter plate was rinsed three times and given room to aspirate.
After that, the plate was incubated at 37 °C for 60 min with 100 μL of HRP-avidin solution added to each well. After that, the plate was aspirated and cleaned 5 times. Each well received 90 μL of TMB substrate, and the plate was incubated for 30 min. at 37 °C in a light-protected environment.
Finally, stop solution (50 μL) was loaded, and within 5 minutes, the absorbance at 450 nm was measured spectrophotometrically.

[4] = test system: Ovarian Cancer cell lines; assay: NCI five-dose testing, subpanel (MID b, selectivity); details: for SI: full-panel MG-MID / subpanel MG-MID, Ovarian Cancer; for MG-MID: mean activity across subpanel Ovarian Cancer
From the text: as §1, §2
(§7) At the National Cancer Institute (NCI) in Bethesda, USA, researchers examined the anticancer potential of the target compounds under investigation using nine panels of sixty different cell lines obtained from nine different cancers that were housed in the NCI library. Following the protocols laid out by the National Cancer Institute (https://dctd.cancer.gov/data-tools-biospecimens/data (accessed on 15 March 2023 and 6 January 2024)), the screening procedures were carried out [37]. The anticancer screening was carried out at a single dose of 10^−5 M; the results obtained were expressed as growth inhibition (%).
(§8) The anti-cancer potential of the tested compounds was evaluated at the National cancer institute (NCI), Bethesda, USA, against 9 panels of 60 various cell lines derived from nine human tumours available usually at NCI library. The procedures for the screening were described in details in NCI website (dttp://www.dtp.nci.nih.gov.) and were done according to NCI protocols. The anticancer screening was carried out at single dose of 10^-5 M. The results obtained as growth inhibition (%).
as §5, §6

[5] = test system: Non-Small-Cell Lung Cancer cell lines; assay: as above; details: for SI: full-panel MG-MID / subpanel MG-MID, Non-Small-Cell Lung Cancer; for MG-MID: mean activity across subpanel Non-Small-Cell Lung Cancer
From the text: as §1, §2, §3, §4, §5, §6

Renal Cancer cell lines = assay: as above; details: full-panel MG-MID / subpanel MG-MID
From the text: as §1, §2, §7
The anti-cancer potential of the tested compounds was evaluated at the National cancer institute (NCI), Bethesda, USA, against 9 panels of 60 various cell lines derived from nine human tumours available usually at NCI library. The procedures for the screening were described in details in NCI website (dttp://www.dtp.nci.nih.gov.) and were done according to NCI protocols. […]

Breast Cancer cell lines = assay: as above; details: for SI: full-panel MG-MID / subpanel MG-MID, Breast Cancer; for MG-MID: mean activity across subpanel Breast Cancer
From the text: as §1, §2, §7, §8, §5, §6

UO-31 = assay: NCI-60 screening, five-dose, SRB; assay type: cell-based, human; details: for GI50 / IC50 / LC50 (concentration killing 50% of cells): Homo sapiens
topoisomerase IIβ = topoisomerase IIβ (Homo sapiens, UniProt Q02880); assay: Topoisomerase II inhibition assay (ELISA kit of human DNA topoisomerase); details: for TOPO II fld (fold of control): HCT116, control = 1; for Topoisomerase II % Inhibition: in comparison to negative control
topoisomerase IIβ, sequence (Q02880 2-1626): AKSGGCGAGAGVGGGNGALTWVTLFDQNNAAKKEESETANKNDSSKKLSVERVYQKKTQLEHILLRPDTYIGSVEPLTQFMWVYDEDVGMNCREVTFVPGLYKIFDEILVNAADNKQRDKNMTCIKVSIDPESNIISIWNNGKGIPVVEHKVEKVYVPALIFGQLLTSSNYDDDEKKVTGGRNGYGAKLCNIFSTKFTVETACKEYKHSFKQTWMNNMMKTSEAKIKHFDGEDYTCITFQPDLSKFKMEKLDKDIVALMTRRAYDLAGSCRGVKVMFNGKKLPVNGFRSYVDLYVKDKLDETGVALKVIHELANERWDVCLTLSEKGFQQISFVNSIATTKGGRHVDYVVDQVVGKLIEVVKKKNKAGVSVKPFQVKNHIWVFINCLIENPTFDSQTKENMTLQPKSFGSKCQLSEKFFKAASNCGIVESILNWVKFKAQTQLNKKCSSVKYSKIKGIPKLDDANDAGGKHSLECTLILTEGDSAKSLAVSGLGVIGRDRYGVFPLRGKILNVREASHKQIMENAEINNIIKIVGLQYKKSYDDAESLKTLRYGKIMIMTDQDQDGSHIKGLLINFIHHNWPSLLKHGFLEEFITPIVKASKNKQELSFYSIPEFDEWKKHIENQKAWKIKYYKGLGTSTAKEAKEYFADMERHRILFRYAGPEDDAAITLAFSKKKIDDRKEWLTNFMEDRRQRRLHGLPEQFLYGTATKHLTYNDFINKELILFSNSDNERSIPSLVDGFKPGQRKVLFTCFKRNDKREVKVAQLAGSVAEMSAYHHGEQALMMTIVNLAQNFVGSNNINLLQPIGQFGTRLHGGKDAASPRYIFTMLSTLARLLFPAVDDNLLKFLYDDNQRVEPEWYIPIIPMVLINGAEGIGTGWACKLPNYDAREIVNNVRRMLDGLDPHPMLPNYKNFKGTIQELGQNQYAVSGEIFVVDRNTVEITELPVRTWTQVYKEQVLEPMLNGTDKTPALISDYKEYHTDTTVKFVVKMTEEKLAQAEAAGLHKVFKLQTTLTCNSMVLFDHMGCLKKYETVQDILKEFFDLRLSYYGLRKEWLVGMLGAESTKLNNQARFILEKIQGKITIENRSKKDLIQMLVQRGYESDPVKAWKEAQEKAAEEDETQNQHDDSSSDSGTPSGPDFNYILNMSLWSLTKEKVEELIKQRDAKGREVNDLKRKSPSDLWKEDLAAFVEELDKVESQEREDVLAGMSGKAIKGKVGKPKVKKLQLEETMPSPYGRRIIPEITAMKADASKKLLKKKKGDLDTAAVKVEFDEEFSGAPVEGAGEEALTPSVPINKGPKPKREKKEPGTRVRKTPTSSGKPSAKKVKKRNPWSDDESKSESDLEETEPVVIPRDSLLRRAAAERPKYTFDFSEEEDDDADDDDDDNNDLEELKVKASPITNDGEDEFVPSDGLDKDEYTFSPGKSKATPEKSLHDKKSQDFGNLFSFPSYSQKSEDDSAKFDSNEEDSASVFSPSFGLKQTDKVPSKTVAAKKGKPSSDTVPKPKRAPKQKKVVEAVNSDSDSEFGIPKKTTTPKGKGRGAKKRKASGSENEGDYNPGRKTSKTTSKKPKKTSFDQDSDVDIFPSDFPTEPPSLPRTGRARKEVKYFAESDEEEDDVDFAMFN

[6] = test system: Prostate Cancer cell lines; assay: NCI five-dose testing, subpanel (MID b, selectivity); details: for SI: full-panel MG-MID / subpanel MG-MID, PC (prostate); for MG-MID: mean activity across subpanel PC (prostate)
From the text: as §1, §2, §7, §8, §5, §6

[7] = test system: leukemia HL-60, RPMI-8226, and colon HCT-116 cells; assay: Antiproliferative activity, IC50 range over three cell lines; assay type: cell-based; details: Homo sapiens; range over HL-60, RPMI-8226 and HCT-116
CNS Cancer cell lines = assay: NCI five-dose testing, subpanel (MID b, selectivity); details: for SI: full-panel MG-MID / subpanel MG-MID, CNS Cancer; for MG-MID: mean activity across subpanel CNS Cancer
From the text: as §1, §2, §3, §4, §5, §6

caspase-3 = assay: Relative gene expression by qRT-PCR in HCT-116; assay type: cell-based, human; details: HCT116; untreated control = 1
caspase-9 = assay: Relative gene expression by qRT-PCR in HCT-116; assay type: cell-based, human; details: HCT116; untreated control = 1
Bax = assay: Relative gene expression by qRT-PCR in HCT-116; assay type: cell-based, human; details: HCT116; untreated control = 1

Cc1nc(SCC(=O)N2CCN(c3cc4c(cc3F)c(=O)c(C(=O)O)cn4C3CC3)CC2)sc1C(=O)/C=C/c1cccc(Cl)c1 [Compound 4b, (E)-7-(4-(2-((5-(3-(3-Chlorophenyl)acryloyl)-4-methylthiazol-2-yl)thio)acetyl)piperazin-1-yl)-1-cyclopropyl-6-fluoro-4-oxo-1,4-dihydroquinoline-3-carboxylic Acid]
viability at 0.4 µM [1]: 82.8%
viability at 1.6 µM [1]: 71.8%
viability at 6.3 µM [1]: 63.5%
viability at 25 µM [1]: 52.9%
viability at 100 µM [1]: 37.1%
IC50 [1]: 26.8 ± 0.92 µM
GI50 [2]: 0.2 to 12.9 µM
SI [2]: 9.22
MG-MID [2]: 7.62 µM
Cell cycle arrest phase [3]: G1 phase
DNA Content G2/M Phase [3]: 2.92%
DNA Content S Phase [3]: 23.23%
DNA Content G0-G1 Phase [3]: 73.85%
SI (Melanoma cell lines): 0.95
MG-MID (Melanoma cell lines): 74.08 µM
Apoptosis Late (colon HCT116 cells): 22.37%
Apoptosis Early (colon HCT116 cells): 6.96%
Apoptosis Total (colon HCT116 cells): 29.33%
Necrosis (colon HCT116 cells): 3.66%
GI50 (Colon Cancer cell lines): 0.3 to 15.1 µM
SI (Colon Cancer cell lines): 2.18
MG-MID (Colon Cancer cell lines): 32.16 µM
TOPO I fld (fold of control) (Topoisomerase I): 0.227
Topoisomerase I % Inhibition (Topoisomerase I): 77.3%
SI [4]: 0.77
MG-MID [4]: 91.67 µM
SI [5]: 0.73
MG-MID [5]: 96.35 µM
SI (Renal Cancer cell lines): 1.5
SI (Breast Cancer cell lines): 1.04
MG-MID (Breast Cancer cell lines): 67.8 µM
TGI (UO-31): 100.0 µM
GI50 (UO-31): > 100 µM
IC50 (UO-31): > 100 µM
LC50 (concentration killing 50% of cells) (UO-31): > 100 µM
TOPO II fld (fold of control) (topoisomerase IIβ): 0.266
Topoisomerase II % Inhibition (topoisomerase IIβ): 73.4%
SI [6]: 0.70
MG-MID [6]: 100.0 µM
IC50 [7]: 0.3 to 3.7 µM
SI (CNS Cancer cell lines): 1.01
MG-MID (CNS Cancer cell lines): 69.63 µM

Cc1nc(SCC(=O)N2CCN(c3cc4c(cc3F)c(=O)c(C(=O)O)cn4C3CC3)CC2)sc1C(=O)/C=C/c1cccc(F)c1 [Compound 4d, (E)-1-Cyclopropyl-6-fluoro-7-(4-(2-((5-(3-(3-fluorophenyl)acryloyl)-4-methylthiazol-2-yl)thio)acetyl)piperazin-1-yl)-4-oxo-1,4-dihydroquinoline-3-carboxylic Acid]
Relative gene expression of caspase-3 (caspase-3): 10.86 fold
viability at 0.4 µM [1]: 83.4%
viability at 1.6 µM [1]: 72.8%
viability at 6.3 µM [1]: 64.1%
viability at 25 µM [1]: 52.9%
viability at 100 µM [1]: 44%
IC50 [1]: 41.2 ± 1.42 µM
GI50 [2]: 0.19 to 3.39 µM
SI [2]: 24.6
MG-MID [2]: 2.9 µM
Cell cycle arrest phase [3]: G1 phase
DNA Content G2/M Phase [3]: 3.75%
DNA Content S Phase [3]: 18.33%
DNA Content G0-G1 Phase [3]: 77.92%
SI (Melanoma cell lines): 0.89
MG-MID (Melanoma cell lines): 79.00 µM
Apoptosis Late (colon HCT116 cells): 26.29%
Apoptosis Early (colon HCT116 cells): 11.92%
Apoptosis Total (colon HCT116 cells): 38.21%
Necrosis (colon HCT116 cells): 3.82%
Relative gene expression of caspase-9 (caspase-9): 4.2 fold and 4.214 fold
GI50 (Colon Cancer cell lines): 0.52 to 4.9 µM
SI (Colon Cancer cell lines): 2.8
MG-MID (Colon Cancer cell lines): 25.3 µM
Relative gene expression of Bax (Bax): 5.58 fold and 5.577 fold
TOPO I fld (fold of control) (Topoisomerase I): 0.277
Topoisomerase I % Inhibition (Topoisomerase I): 72.3%
SI [4]: 0.70
MG-MID [4]: 100 µM
SI [5]: 0.81
MG-MID [5]: 86.5 µM
SI (Renal Cancer cell lines): 1.5
SI (Breast Cancer cell lines): 0.99
MG-MID (Breast Cancer cell lines): 71.1 µM
TGI (UO-31): 100.0 µM
GI50 (UO-31): > 100 µM
IC50 (UO-31): > 100 µM
LC50 (concentration killing 50% of cells) (UO-31): > 100 µM
TOPO II fld (fold of control) (topoisomerase IIβ): 0.481
Topoisomerase II % Inhibition (topoisomerase IIβ): 51.9%
SI [6]: 0.70
MG-MID [6]: 100.0 µM
IC50 [7]: 0.3 to 3.7 µM
SI (CNS Cancer cell lines): 0.97
MG-MID (CNS Cancer cell lines): 72.0 µM
